# Data as given in patent US20220364065A1, “COMPOSITION FOR REMOVING PLURIPOTENT STEM CELLS AND METHOD OF REMOVING PLURIPOTENT STEM CELLS” (NATIONAL UNIVERSITY CORPORATION HOKKAIDO UNIVERSITY, priority 2018, published 2022).
# “Also recorded” adds a separate entry of the source.
# Legend:
# [1] = system: mouse iPS cells; assay: MTT assay, viability of mouse iPS cells; type: cell-based; conditions: 3 days
# Procedure: (§1) One thousand cells were seeded into each well of a 96-well plate and cultured for 3 days in medium (200 μL/well) supplemented with only DMSO at a final concentration of 0.1% or in medium (200 μL/well) supplemented with each dihydroorotate dehydrogenase (DHODH) inhibitor. The medium used was the appropriate culture solution for each cell as described above.
# (§2) The concentration of each DHODH inhibitor added to the medium was a 2-fold dilution series starting from 200 μM.
# (§3) As a background, a well containing medium only was prepared, and as a control, a well was also prepared in which medium containing Triton X-100 (final concentration 0.2%) was added to the cells.
# (§4) Then, 5 μL of MTT (5 mg/ml, manufactured by Wako) was added to each well, and the cells were incubated at 37° C. for 2 to 3 hours. Then, the medium was replaced with 100 μL of DMSO to lyse the cells, and the absorbance of these cell lysates at a wavelength of 570 nm was measured with a microplate reader (manufactured by Bio-Rad, Benchmark model). In addition, based on the obtained absorbance, the cell viability was calculated by the following formula.
# (§5) Cell viability (%)=(absorbance in wells with DHODH inhibitor-absorbance in background)/(absorbance in control-absorbance in background)×100.
# [2] = system: mouse iPS cells; assay: Teratoma formation from pretreated iPS cells in NOD/SCID mice; type: in vivo; conditions: iPS cells pretreated 2 days with 10 μM BRQ, subcutaneous in NOD/SCID mice, 4 weeks
# Procedure: The viable cells (1×10^6) were suspended in 50 μl of Matrigel (manufactured by BD Biosciences) and injected subcutaneously into the buttocks of 5-8-week-old NOD/SCID mice anesthetized with 10% pentobarbital. Four weeks after the injection, the mice were sacrificed to death, and the tumors were removed and photographed for their size measurement according to the method described in Tsukamoto Y, et al., Stem Cells. 2016; 34(8): 2016-2025. Based on the measurement values obtained, the volume of the tumors was calculated by the following formula.
# Volume of tumor (cm^3)=major diameterxminor diameterxminor diameter×½.
# Then, 4 weeks after transplantation, the tumors were removed and observed.
# [3] = system: mouse ES cells; assay: MTT assay, viability of mouse ES cells; type: cell-based; conditions: 3 days
# Procedure: as §1, §2, §3, §4, §5
# [4] = system: mouse astrocytes; assay: MTT assay, viability of mouse astrocytes; type: cell-based; conditions: 10 μM BRQ, 3 days
# Procedure: as §1, §2, §3, §4, §5
# [5] = system: mouse ES cells; assay: Quantitative RT-PCR of Sox2, Oct4, Nanog, ES cells; type: cell-based; conditions: 10 μM BRQ, 2 days
# Procedure: First, total RNA was prepared from cells using the RNeasy kit (manufactured by Qiagen), and cDNA was synthesized using the Transcriptor First Strand cDNA Synthesis Kit (manufactured by Roche Applied Science).
# Then, the cDNA was used as a template, and Thunderbird Cyber qPCR Mix (manufactured by TOYOBO) and Step One Plus (manufactured by Thermo Fisher Scientific) were used to perform real-time PCR. The reaction conditions were set at 95° C. for 15 seconds and 60° C. for 30 seconds for 40 cycles, and the oligonucleotide primers shown below were used to amplify each target gene.
# Note that the expression level of each target gene detected in this way was normalized by the relative quantification method (delta delta Ct method) based on the expression level of 18S ribosomal RNA.
# [6] = system: mouse iPS cells; assay: Immunostaining of pluripotent stem cell markers (Sox2, Nanog, Oct4), iPS cells; type: cell-based
# Procedure: The cells were fixed and immunostained as described in Kondo et al., Genes Dev. […] For the culture of ES cells and iPS cells, gelatin-coated ones were used.
# For immunostaining, the cells were first washed once with PBS, then fixed by adding 4% paraformaldehyde and incubating for 10 minutes at room temperature. The cells were replaced with PBS containing 0.3% Triton X100 and incubated for 5 minutes at room temperature, then replaced with PBS containing 0.3% Triton X100 and 10% FCS (blocking solution) and incubated for 30 minutes at room temperature. The solution was replaced with primary antibody solution diluted in blocking solution and incubated for 2 hours at room temperature. After washing three times with PBS, secondary antibody and DAPI solution diluted with blocking solution were added and incubated at room temperature for 2 hours. […] Note that the cell nuclei were visualized by contrast staining with DAPI solution (1 μg/mL, manufactured by Dojindo, product code: D523). In addition, fluorescence images were acquired with an Axiolmager M1 microscope (manufactured by Carl Zeiss).
# LMB is a specific inhibitor of CRM1, also known as Exportin 1.
# [7] = system: NT2: human embryonal carcinoma (EC) cells; assay: MTT assay, viability of NT2 cells; type: cell-based; conditions: 10 μM BRQ, 3 days
# Procedure: as §1, §2, §3, §4
# Cell viability (%)=(absorbance in wells with DHODH inhibitor-absorbance in background)/(absorbance in control-absorbance in background)×100. […]
# [8] = system: mouse ES cells; assay: Cell proliferation and cell death (BrdU uptake, Ki67, Casp3 immunostaining), ES cells; type: cell-based; conditions: BRQ 2 days
# Procedure: The cells were fixed and immunostained as described in Kondo et al., Genes Dev. 2004, Vol. 18, Issue 23, pp. 2963-72. […] For the culture of mNSCs, PDL+fibronectin-coated ones were used (see Johe KK et al., Genes Dev. 1996, Vol. 10, Issue 24, pp. 3129 to 3140). For the culture of ES cells and iPS cells, gelatin-coated ones were used.
# For immunostaining, the cells were first washed once with PBS, then fixed by adding 4% paraformaldehyde and incubating for 10 minutes at room temperature. The cells were replaced with PBS containing 0.3% Triton X100 and incubated for 5 minutes at room temperature, then replaced with PBS containing 0.3% Triton X100 and 10% FCS (blocking solution) and incubated for 30 minutes at room temperature. The solution was replaced with primary antibody solution diluted in blocking solution and incubated for 2 hours at room temperature. After washing three times with PBS, secondary antibody and DAPI solution diluted with blocking solution were added and incubated at room temperature for 2 hours. After washing three times with PBS, the cells were sealed with anti-fading agent (manufactured by DAKO, code number: 53023) and observed under a microscope. […] In addition, fluorescence images were acquired with an Axiolmager M1 microscope (manufactured by Carl Zeiss). […]
# [9] = 2-fold dilution series starting from 200 μM
# [10] = iPS cells, 2 days, BRQ 10 μM (ZVAD 100 nM where added)
# [11] = mouse iPS cells, 10 μM BRQ, 24 hours
structure (smiles),measurement,setting,value
"Cc1c(-c2ccc(-c3ccccc3F)cc2)nc2ccc(F)cc2c1C(=O)O [BRQ, 6-fluoro-2-(2′-fluoro-1,1′-biphenyl-4-yl)-3-methyl-4-quinoline-sodium carboxylate]","cytotoxic activity (viability, MTT assay)",[1]; 10 μM BRQ,significant cytotoxic activity
same,"cytotoxic activity (viability, MTT assay)",[1]; [9],significant cytotoxic activity
same,tumor formation from pretreated cells,[2],did not proliferate
same,"cytotoxic activity (viability, MTT assay)",[3]; 10 μM BRQ,significant cytotoxic activity
same,"cytotoxic activity (viability, MTT assay)",[3]; [9],significant cytotoxic activity
same,"cytotoxic activity / sensitivity (viability, MTT assay)",[4],hyposensitive; also recorded: no significant cytotoxic activity
same,"expression levels of marker genes (Sox2, Oct4, Nanog)",[5],generally decreased
same,Nanog-positive cells,[6]; [10],0%
same,Oct4-positive cells,[6]; [10],0%
same,cells in which expression of Sox2 was not observed,[6]; [11],about 30%
same,inhibition of cell proliferation or cell death,[6]; [11],inhibition of cell proliferation or cell death was already observed
same,subcellular localization of Nanog,"[6]; mouse iPS cells, 10 μM BRQ, 2 days",distributed in the cytoplasm
same,"cytotoxic activity (viability, MTT assay)",[7],significant cytotoxic activity
same,CASP3 activation (Casp3 immunostaining),[8],strongly activated
same,cell proliferation (BrdU uptake assay),[8],reduced the proliferation
